Laboratory results as given in paper PMC8131363 (Scientific Reports, 2021).
pEC50: −log10 of the molar value. Where two headings read alike, the source gives them in different places.

Legend:
[1] = target: T1, cCaSR (Felis catus, UniProt C7FF08)
T1 sequence (C7FF08 1-1081): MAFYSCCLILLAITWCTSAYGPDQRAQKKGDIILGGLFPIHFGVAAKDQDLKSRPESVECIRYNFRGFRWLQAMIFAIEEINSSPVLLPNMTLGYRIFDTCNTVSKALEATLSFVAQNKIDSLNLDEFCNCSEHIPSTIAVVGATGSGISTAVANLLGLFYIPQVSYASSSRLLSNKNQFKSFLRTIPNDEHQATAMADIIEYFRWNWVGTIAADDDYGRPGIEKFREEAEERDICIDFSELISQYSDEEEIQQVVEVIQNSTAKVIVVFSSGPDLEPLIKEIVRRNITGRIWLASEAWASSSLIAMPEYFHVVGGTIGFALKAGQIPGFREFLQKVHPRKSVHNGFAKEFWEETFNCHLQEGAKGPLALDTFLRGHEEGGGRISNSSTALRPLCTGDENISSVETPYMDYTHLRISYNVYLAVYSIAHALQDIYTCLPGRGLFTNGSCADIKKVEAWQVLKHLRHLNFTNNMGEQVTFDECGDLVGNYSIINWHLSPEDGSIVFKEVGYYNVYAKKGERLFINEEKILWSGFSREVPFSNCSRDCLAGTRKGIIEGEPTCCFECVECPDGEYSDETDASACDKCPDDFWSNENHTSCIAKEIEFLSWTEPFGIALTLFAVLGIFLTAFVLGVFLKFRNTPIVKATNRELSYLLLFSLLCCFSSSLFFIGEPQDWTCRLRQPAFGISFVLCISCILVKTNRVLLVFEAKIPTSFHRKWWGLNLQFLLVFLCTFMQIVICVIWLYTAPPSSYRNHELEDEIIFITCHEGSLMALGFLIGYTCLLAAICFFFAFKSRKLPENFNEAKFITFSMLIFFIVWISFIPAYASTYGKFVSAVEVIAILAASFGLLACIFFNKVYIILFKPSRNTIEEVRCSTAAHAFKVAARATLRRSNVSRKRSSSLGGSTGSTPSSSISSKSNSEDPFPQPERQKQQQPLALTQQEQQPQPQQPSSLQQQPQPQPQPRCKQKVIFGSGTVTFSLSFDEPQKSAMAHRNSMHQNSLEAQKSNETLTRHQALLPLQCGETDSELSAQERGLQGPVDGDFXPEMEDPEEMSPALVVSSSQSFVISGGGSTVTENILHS
Experimental: The cCaSR expression constructs were stably-transfected in the mammalian cell line, HEK293/ T-REx/ natClytin. Transfections were performed by electroporation, following standard methodologies. Stably-transfected target and mock pools were obtained after 2–3 weeks of antibiotic selection, and clones were selected for testing. In order to evaluate the activity of each clone, 10 mM Calcium was injected onto the cells and the resulting luminescence was measured.
All compounds screened on the receptor were analysed in parallel with Calcium, on the HEK293/ T-REx/ natClytin-cCaSR or hCaSR stable or transient cell lines. Prior to the measurements, the cells were incubated with 10 µM of photoprotein substrate, Coelenterazine, prepared in Calcium-free Tyrode’s buffer at 37 °C for 3–4 h. All the data was captured using a FLIPR Tetra (Molecular Devices). A single or double injection protocol was used to capture the data for potential agonists and PAMs, respectively. The compounds tested were all prepared at desired concentration in Calcium-Free Tyrode’s buffer supplemented with 0.5% DMSO. For the activity determination of potential agonists, the single injection protocol was used, with CaCl2 as the positive control for each run. Each compound was injected into specific wells and the luminescence signal was measured for 1 min. for each compound. For potential PAMs, the double injection protocol was used. The first injection was identical to the one described above for potential agonists. A 20 min. resting period followed the first injection and a second injection of 0.5 mM CaCl2 in Calcium-free Tyrode’s buffer was injected to all wells, and the resulting luminescence signal was again measured for 1 min for each compound.
Dose–response curves were established by plotting signal amplitudes versus agonist concentration. For each compound, the % of maximum response was determined using a standard formula as follows:
The half maximal effective concentrations (EC50) were identified by nonlinear regression using a variable slope model with the equation Y = Bottom + (X^Hillslope)*(Top–Bottom)/ (X^HillSlope + EC50^HillSlope), where Y is the agonist concentration, Top and Bottom are the plateaus in the same units as Y and HillSlope is the Slope factor or Hill slope. […] In these cases the EC50 was noted as being higher than the maximum concentration used in the assay.

[2] = target: T1, cCaSR; assay: cCaSR PAM luminescence assay, double injection with 0.5 mM CaCl2, HEK293/T-REx/natClytin-cCaSR
[3] = Supplementary Table I, agonist assay, dash = no activity
[4] = Supplementary Table I, PAM assay, dash = no activity
[5] = read-out: EC50 PAM, Supplementary Table I, positive allosteric modulator, presence of Ca2+
[6] = read-out: cCaSR activity, agonist assay, stable inducible cCaSR line, at least three wells
[7] = agonist assay, stable inducible cCaSR line, > 0.01 M = maximal response not reached
[8] = read-out: EC50 Ago, Supplementary Table I, agonist assay, > 0.01 M = maximal response not reached

NC[C@H]1O[C@H](O[C@H]2[C@H](O)[C@@H](O[C@H]3O[C@H](CO)[C@@H](O)[C@H](N)[C@H]3O)[C@H](N)C[C@@H]2N)[C@H](O)[C@@H](O)[C@@H]1O [Kanamycin solution, Kanamycin, reference compound]
EC50 Ago (M) [1, 3]: - | EC50 PAM (M) [2, 4]: -

N[C@@H](CS)C(=O)O [L-Cysteine]
EC50 Ago (M) [1, 3]: - | EC50 PAM (M) [2, 4]: -

NCCNCCNCCN [Triethylenetetramine]
EC50 Ago (M) [1]: -

Cc1ccc(C(C)(O)c2nc3ccccc3s2)c(C)c1 (centres unmarked) [AC-265347, reference compound]
EC50 Ago (M) [1, 3]: -

NC[C@H](N)C(=O)O [S-2,3-diaminopropanoic acid]
EC50 Ago (M) [1, 3]: - | EC50 PAM (M) [2, 4]: -

O=C(O)[C@@H]1CCCN1 [L-Proline]
EC50 Ago (M) [1, 3]: - | EC50 PAM (M) [2, 4]: -

CC1(C)N[C@H](C(=O)O)Cc2c1[nH]c1ccccc21 [S-1,1-dimethyl-2,3,4,9-tetrahydro-1H-pyrido[3,4-b]indole-3-carboxylic acid]
EC50 Ago (M) [1, 3]: - | EC50 PAM (M) [2, 4]: -

N[C@@H](CCC(=O)NCC(=O)NCC(=O)O)C(=O)O [γ-Glu-Gly-Gly]
EC50 Ago (M) [1, 3]: - | EC50 PAM (M) [2, 4]: -

CC(C)C1NC(C(=O)O)Cc2c1[nH]c1ccccc21 (centres unmarked) [1-isopropyl-2,3,4,9-tetrahydro-1H-pyrido[3,4-b]indole-3-carboxylic acid]
EC50 Ago (M) [1, 3]: - | EC50 PAM (M) [2, 4]: -

NCCCCCN [Cadaverine]
EC50 Ago (M) [1, 3]: - | EC50 PAM (M) [2, 4]: -

CC(C)[C@H](N)P(=O)(O)O [(1R)-(+)-(1-Amino-2-methylpropyl)phosphonic acid]
EC50 Ago (M) [1]: - | EC50 PAM (M) [2]: -

C[C@H](N)C(=O)O [L-Alanine]
EC50 Ago (M) [1, 3]: - | EC50 PAM (M) [2, 4]: -

CC(=O)N1C=Cc2ccccc2C1CC(=O)NC(C)c1cccc(Br)c1 (centres unmarked) [Enamine Screening - Z336933272]
EC50 Ago (M) [1, 3]: - | pEC50 [2, 5]: 4.92

C[C@@H](O)C(=O)SC[C@H](NC(=O)CC[C@H](N)C(=O)O)C(=O)NCC(=O)O [S-Lactoylglutathione]
EC50 PAM (M) [2, 4]: -

CNC(=N)NCCC[C@H](N)C(=O)O [NG-methyl L Arginine]
EC50 Ago (M) [1, 3]: - | EC50 PAM (M) [2, 4]: -

CC(C)[C@H](N)C(=O)O [L-Valine]
EC50 Ago (M) [1, 3]: - | EC50 PAM (M) [2, 4]: -

NC(N)=NCCC[C@@H](N)C(=O)O [D-Arginine]
EC50 Ago (M) [1, 3]: - | EC50 PAM (M) [2, 4]: -

C[C@@H](O)[C@H](N)C(=O)O [L-Threonine]
EC50 Ago (M) [1, 3]: - | EC50 PAM (M) [2, 4]: -

[Sr+2] [Sr^2+]
pEC50 [1, 6]: < 2.00 | EC50 PAM (M) [2, 4]: -

NCCCC[C@H](NC(=O)C[C@H](N)C(=O)O)C(=O)O [β-Asp-Lys]
EC50 Ago (M) [1, 3]: - | EC50 PAM (M) [2, 4]: -

C1N2CN3CN1CN(C2)C3 [Hexamethylenetetramine]
EC50 Ago (M) [1, 3]: - | EC50 PAM (M) [2, 4]: -

N[C@@H](CO)C(=O)O [L-Serine]
EC50 Ago (M) [1, 3]: - | EC50 PAM (M) [2, 4]: -

O=C(O)c1cc2c(cn1)[nH]c1ccccc12 [9H-pyrido[3,4-b]indole-3-carboxylic acid]
EC50 Ago (M) [1, 3]: - | EC50 PAM (M) [2, 4]: -

C[C@](N)(CC(=O)O)C(=O)O [(S)-a-Methylaspartic acid, (S)-α-Methylaspartic acid]
EC50 Ago (M) [1, 3]: - | EC50 PAM (M) [2, 4]: -

NCCNCCCNCCN [N,N'-Bis(2-aminoethyl)-1,3-propanediamine]
EC50 Ago (M) [1]: - | EC50 PAM (M) [2]: -

[Gd+3] [Gd^3+, Gadolinium ion Gd^3+]
pEC50 [1, 7]: 3.53 | pEC50 [1, 8]: 3.53 | pEC50 [1, 6]: > 3.00 | EC50 PAM (M) [2, 4]: -

COc1c(C)cc(C(=O)CC#N)cc1C [3,5-Dimethyl-4-methoxybenzoylacetonitrile]
EC50 Ago (M) [1, 3]: - | EC50 PAM (M) [2, 4]: -

C[C@@H](NCCCc1cccc(C(F)(F)F)c1)c1cccc2ccccc12 [Cinacalcet, reference compound]
EC50 Ago (M) [1, 3]: - | pEC50 [2]: 6.13

O.O.[Ba+2].[Cl-].[Cl-] [Ba^2+, Barium chloride dihydrate]
EC50 PAM (M) [2]: -

OCC(CNC1CCCOc2cc(Cl)ccc21)Cc1ccccn1 (centres unmarked) [Enamine Screening - Z1589915397]
EC50 Ago (M) [1, 3]: - | pEC50 [2, 5]: 3.91

NC(CCCC(N)C(=O)O)C(=O)O (centres unmarked) [2,6-Diaminopimelic acid]
EC50 Ago (M) [1, 3]: - | EC50 PAM (M) [2, 4]: -

N[C@@H](CCO)C(=O)O [L-Homoserine]
EC50 Ago (M) [1, 3]: - | EC50 PAM (M) [2, 4]: -

CN(C)C(N)=NCCC[C@H](N)C(=O)O.Cl.Cl [NG,NG-Dimethylarginine dihydrochloride]
EC50 Ago (M) [1, 3]: - | EC50 PAM (M) [2, 4]: -

Poly-L-lysine
pEC50 [1, 6]: < 2.00 | EC50 PAM (M) [2, 4]: -

CO[C@H]1[C@H](O)[C@@H](CO)OC(O)[C@@H]1O (stereo partly drawn) [3-O-Methyl-D-glucopyranose]
EC50 Ago (M) [1, 3]: - | EC50 PAM (M) [2, 4]: -

CC(C)C[C@H](N)C(=O)O [L-Leucine]
EC50 Ago (M) [1, 3]: - | EC50 PAM (M) [2, 4]: -

NC[C@@H]1O[C@H](O[C@H]2[C@@H](O)[C@H](O[C@@H]3[C@@H](O)[C@H](N)C[C@H](N)[C@H]3O[C@H]3O[C@H](CN)[C@@H](O)[C@H](O)[C@H]3N)O[C@@H]2CO)[C@H](N)[C@@H](O)[C@@H]1O [Neomycin, reference compound]
EC50 PAM (M) [2, 4]: -

O=C([O-])[O-].O=C([O-])[O-].O=C([O-])[O-].[Ce+3].[Ce+3] [Cerium(III) carbonate]
EC50 Ago (M) [1, 3]: - | EC50 PAM (M) [2, 4]: -

OC[C@H]1O[C@H](O[C@]2(CCl)O[C@H](CCl)[C@@H](O)[C@@H]2O)[C@H](O)[C@@H](O)[C@H]1Cl [Sucralose]
EC50 Ago (M) [1, 3]: - | EC50 PAM (M) [2, 4]: -

NCCCC[C@@H](N)C(=O)O [D-Lysine]
EC50 Ago (M) [1, 3]: - | EC50 PAM (M) [2, 4]: -

O=C(O)[C@@H]1CNCCN1 [S-piperazine-2-carboxylic acid]
EC50 Ago (M) [1, 3]: - | EC50 PAM (M) [2, 4]: -

O.O.O.O.O.O.O.O.O.O.O=P([O-])([O-])OP(=O)([O-])[O-].[Na+].[Na+].[Na+].[Na+] [Sodium pyrophosphate tetrabasic decahydrate]
EC50 Ago (M) [1, 3]: - | EC50 PAM (M) [2, 4]: -

CC(=O)[O-].CC(=O)[O-].CC(=O)[O-].O.[Tb+3] [Tb^3+, Terbium(III) acetate hydrate]
pEC50 [1, 7]: 3.76 | pEC50 [1, 8]: 3.76 | pEC50 [1, 6]: > 3.00 | EC50 PAM (M) [2, 4]: -

NC(=O)C[C@H](N)C(=O)O [L-Asparagine]
EC50 Ago (M) [1, 3]: - | EC50 PAM (M) [2, 4]: -

C[C@@H](NCc1cc2ccccc2[nH]1)c1cccc2ccccc12 [Calindol, reference compound]
EC50 Ago (M) [1, 3]: -

C[C@@H](N[C@H]1CCCC[C@@H]1NC(=O)c1ccc(Cl)cc1)c1cccc2ccccc12 [Calhex 231, reference compound]
EC50 Ago (M) [1, 3]: - | EC50 PAM (M) [2, 4]: -

CC(NC1CCc2c(F)cc(Br)cc21)c1ccncc1 (centres unmarked) [Enamine Screening - Z1436888168]
EC50 Ago (M) [1, 3]: - | pEC50 [2, 5]: 4.34

N=C(N)NCCC[C@H](N)C(=O)O [L-Arginine]
EC50 Ago (M) [1]: - | EC50 PAM (M) [2]: -

N[C@]1(C(=O)O)C[C@H](C(=O)O)C1 [1s,3s-1-aminocyclobutane-1,3-dicarboxylic acid]
EC50 PAM (M) [2, 4]: -

Poly-L-ornithine
EC50 PAM (M) [2, 4]: -

NCCS(=O)(=O)O [Taurine]
EC50 Ago (M) [1, 3]: - | EC50 PAM (M) [2, 4]: -

NCC(=O)O [Glycine]
EC50 Ago (M) [1, 3]: - | EC50 PAM (M) [2, 4]: -

CC[C@H](C)[C@H](N)C(=O)O [L-Isoleucine]
EC50 Ago (M) [1, 3]: - | EC50 PAM (M) [2, 4]: -

N[C@@H](CCC(=O)N[C@@H](CCC(=O)O)C(=O)N[C@@H](CCC(=O)O)C(=O)O)C(=O)O [γ-Glu-Glu-Glu]
EC50 PAM (M) [2, 4]: -

NC(=O)CC[C@H](NC(=O)[C@H](CCC(=O)O)NC(=O)CC[C@H](N)C(=O)O)C(=O)O [γ-Glu-Glu-Gln]
EC50 PAM (M) [2, 4]: -

[Ba+2].[Cl-].[Cl-] [Ba^2+, Barium chloride dihydrate]
pEC50 [1]: 2.93 | pEC50 ([1]; read-out: EC50 Ago): 2.93 | pEC50 ([1]; read-out: cCaSR activity): 2.00 to 3.00
